Measured values from US8147838B2, “Peptide” (priority 2005, dated 2012).
No end group written: not given here.

Legend:
[1] = molecular target: MHC class I allele A*0101 (A1) (Homo sapiens, UniProt P04439, A114D/A174V/A182V/D101N/D185E/E176A/E190D/L180R/Q94H/R68K/S129P/T187R/V100A/V91M/W191G); experiment: iScore multi-parametric analysis, A*0101; type: binding; settings: for iScore, MHC Class I Molecule A*0101: level of binding: >0.5, 0.25-0.5, <0.25; for iScore (iTopia), A*0101: integrates half-life and ED50
Experimental: (§1) Finally, multiparametric analysis is performed on the results from these assays and an iScore is generated. The iScore represents a measure of the overall quality of peptide-MHC binding, enabling candidate peptides to be ranked in order of binding quality and allowing rational prioritisation of peptides for functional cellular follow-up studies.
(§2) As part of the validation of the iTopia system, a panel of overlapping peptides derived from the CMV pp 65 protein were used and their binding properties for the A*0201 allele analysed. A number of T cell epitopes restricted by HLA A*0201 had already been identified (by more conventional methodologies) by other researchers for this protein. In the iTopia study, it was reported that an iScore of: >0.5 represented “good quality binding”; between 0.25 and 0.5 represented “medium quality binding”; and <0.25 represented “poor quality binding”. Six of the 20 peptides which gave a “good” iScore (>0.5) for A*0201, represented previously characterised CMV pp 65 A*0201 epitopes.
(§3) Each MHC class I allele has different binding properties and affinities for peptides which they bind. Therefore, information obtained with HLA A*0201 in which peptides are ranked as good, medium or poor binders using >0.5, 0.25-0.5 and <0.25 as thresholds is not necessarily transferable between alleles. Also, different proteins are likely to have distinct immunogenic profiles and the affinities between peptides and MHC class I molecules will be different between proteins. This may be particularly relevant in the case of self-antigens where immunogenicity is likely to be lower than in foreign proteins.
(§4) Multi-parametric analysis permits the integration of half-life and ED50 parameters in an integrated iScore. This reflects the capability of a peptide to reconstitute with MHC molecules in a stable complex, defining its overall level of binding i.e. the iScore value represents the overall quality of peptide-MHC binding and is used to rank candidate peptides as an indicator of functional relevance. The lead candidate epitopes for each allele are selected for cellular functional analysis to confirm their biological relevance.
(§5) The changes in gradient of the graphs in FIGS. 7 to 10 are indicated by a line which delineates the populations of iScores forming the basis of discrimination for further functional studies.

[2] = molecular target: MHC class I allele A*0201 (A2) (Homo sapiens, UniProt P04439, D140Y/D185E/D98H/E176V/E277Q/G131W/G231S/I119V/I121R/I166T/I218V/L300P/L318F/N151K/N90K/P208A/P217A/Q86G/Q94H/R138H/R169H/T345S); experiment: iScore multi-parametric analysis, A*0201; type: binding; settings: level of binding: >0.5, 0.25-0.5, <0.25
Experimental: as §1, §2, §3, §4, §5

[3] = molecular target: MHC class I allele A*0301 (A3) (Homo sapiens, UniProt P04439); experiment: iScore multi-parametric analysis, A*0301; type: binding; settings: for iScore, MHC Class I Molecule A*0301: level of binding: >0.5, 0.25-0.5, <0.25; for iScore (iTopia), A*0301: integrates half-life and ED50
Experimental: as §1, §2, §3, §4, §5

[4] = molecular target: MHC class I allele B*0702 (B7) (Homo sapiens, UniProt P01889); experiment: iScore multi-parametric analysis, B*0702; settings: level of binding: >0.5, 0.25-0.5, <0.25
Experimental: as §1
As part of the validation of the iTopia system, a panel of overlapping peptides derived from the CMV pp 65 protein were used and their binding properties for the A*0201 allele analysed. A number of T cell epitopes restricted by HLA A*0201 had already been identified (by more conventional methodologies) by other researchers for this protein. In the iTopia study, it was reported that an iScore of: >0.5 represented “good quality binding”; between 0.25 and 0.5 represented “medium quality binding”; and <0.25 represented “poor quality binding”.
as §4

Sequence | iScore, MHC Class I Molecule A*0101 [1] | iScore, MHC Class I Molecule A*0201 [2] | iScore, MHC Class I Molecule A*0301 [3] | iScore, MHC Class I Molecule B*0702 [4] | iScore (iTopia), A*0101 [1] | iScore (iTopia), A*0301 [3]
ILNHIVPPE [Peptide 90] | 0 | 0.426 | 0 | 0 |  | 
LAELAALNL [Peptide 59] | 0 | 0.72 | 0 | 0.074 |  | 
LALVLLGWV [Peptide 11] | 0 | 0.237 | 0 | 0 |  | 
LASNHFLYL [Peptide 109] | 0.12 | 0.337 | 0.224 | 0 | 0.12 | 0.224
LAVLPAGAF [Peptide 52] | 0 | 0.074 | 0 | 0.049 |  | 
LDLSHNPLA [Peptide 74] | 0 | 0.226 | 0 | 0 |  | 
LELASNHFL [Peptide 108] | 0 | 0.151 | 0 | 0 |  | 
LLAGRALQG [Peptide 102] | 0 | 0.176 | 0 | 0 |  | 
LLGWVSSSS [Peptide 13] | 0 | 0.243 | 0 | 0 |  | 
LQGLRRLEL [Peptide 105] | 0 | 0.114 | 0 | 0.119 |  | 
LSGSRLDEV [Peptide 63] | 0 | 0.075 | 0 | 0.107 |  | 
LSHNPLADL [Peptide 75] | 0 | 0.095 | 0 | 0 |  | 
LSPFAFSGS [Peptide 79] | 0 | 0.064 | 0 | 0 |  | 
LVELILNHI [Peptide 88] | 0 | 0.109 | 0 | 0 |  | 
LVLLGWVSS [Peptide 12] | 0 | 0.122 | 0 | 0 |  | 
LYLPRDVLA [Peptide 112] | 0 | 0.218 | 0 | 0 |  | 
NQLAVLPAG [Peptide 51] | 0 | 0.22 | 0 | 0 |  | 
PLPDQCPAL [Peptide 29, PLPDQCPAL] | 0 | 0.088 | 0 | 0 |  | 
PPLAELAAL [Peptide 58, PPLAELAAL] | 0 | 0.075 | 0 | 0.145 |  | 
QNRSFEGMV [Peptide 96] | 0 | 0.052 | 0 | 0 |  | 

Continued, values first:

iScore, MHC Class I Molecule A*0101 [1] | iScore, MHC Class I Molecule A*0201 [2] | iScore, MHC Class I Molecule A*0301 [3] | iScore, MHC Class I Molecule B*0702 [4] | iScore (iTopia), A*0101 [1] | iScore (iTopia), A*0301 [3] | Sequence
0 | 0.821 | 0 | 0 |  |  | HMADMVTWL [Peptide 151]
0.357 | 0.24 | 0.189 | 0 | 0.357 | 0.189 | HMEGYHYRY [Peptide 198]
0 | 0.181 | 0 | 0 |  |  | IKKWMHNIR [Peptide 191]
0 | 0.523 | 0 | 0 |  |  | ILPPSLQTS [Peptide 174]
0 | 0.15 | 0 | 0 |  |  | KVLHNGTLA [Peptide 136]
0 | 0.045 | 0 | 0 |  |  | KWMHNIRDA [Peptide 192]
0 | 0.425 | 0 | 0.067 |  |  | LALIGAIFL [Peptide 182]
0 | 0.158 | 0 | 0 |  |  | LDLSNNSLV [Peptide 120]
0 | 0.122 | 0 | 0 |  |  | LEDNALKVL [Peptide 133]
0 | 0.187 | 0 | 0.026 |  |  | LHNGTLAEL [Peptide 137]
0 | 0 | 0 | 0.305 |  |  | LPRDVLAQL [Peptide 113]
0 | 0.2 | 0 | 0 |  |  | LQGLPHIRV [Peptide 141]
0 | 0.116 | 0 | 0.112 |  |  | LSNNSLVSL [Peptide 121]
0 | 0.143 | 0 | 0 |  |  | LTHLESLHL [Peptide 129]
0 | 0.027 | 0 | 0 |  |  | LTNLSSNSD [Peptide 206]
0 | 0.093 | 0 | 0 |  |  | MHNIRDACR [Peptide 193]
0 | 0.051 | 0 | 0 |  |  | MVTWLKETE [Peptide 153]
0 | 0.138 | 0 | 0 |  |  | NRKGIKKWM [Peptide 189]
0 | 0.031 | 0 | 0 |  |  | NRVLLELNS [Peptide 166]
0 | 0.145 | 0 | 0 |  |  | PPSLQTSYV [Peptide 175]
